{"source": "patent US7109193B2", "about": "“Tricyclic diazepines tocolytic oxytocin receptor antagonists” (Wyeth, priority 2001, dated 2006)"}
{"target": "T1, human oxytocin receptor (Homo sapiens, UniProt P30559)", "T1 construct": "host or cells: CHO cells (pcDNA3.1 vector)", "T1 sequence (P30559 1-389)": "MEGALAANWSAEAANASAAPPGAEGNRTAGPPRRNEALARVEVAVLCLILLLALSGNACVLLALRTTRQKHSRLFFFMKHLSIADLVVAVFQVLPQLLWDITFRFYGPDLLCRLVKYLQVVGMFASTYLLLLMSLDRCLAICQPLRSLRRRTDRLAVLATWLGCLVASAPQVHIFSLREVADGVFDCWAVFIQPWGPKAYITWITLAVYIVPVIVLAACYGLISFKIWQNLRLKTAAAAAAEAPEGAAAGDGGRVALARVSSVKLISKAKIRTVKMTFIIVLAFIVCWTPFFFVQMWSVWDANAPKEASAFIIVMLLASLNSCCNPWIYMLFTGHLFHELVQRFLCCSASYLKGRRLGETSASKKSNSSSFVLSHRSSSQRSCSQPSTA", "assay": "Oxytocin binding in Chinese Hamster Ovary cell membranes expressing human oxytocin receptors", "conditions": "100 nM, CHO cell membranes, [3H]oxytocin, values without parentheses, read-out: OT % inhibition @ 100% nM", "units": {"inhibition at 0.1 µM": "%"}}
{"smiles": "COc1ccccc1-c1ccc(C(=O)N2Cc3ccc(C(=O)n4ccnc4)n3Cc3ccccc32)cc1OC", "note": "[Example 293, {10-[(2,2′-Dimethoxy[1,1′-biphenyl]-4-yl)carbonyl]-10,11-dihydro-5H-pyrrolo[2,1-c][1,4]benzodiazepin-3-yl}(1H-imidazol-1-yl)methanone]", "inhibition at 0.1 µM": 53}
{"smiles": "CC(C)N1CCN(C(=O)c2ccc3n2Cc2ccccc2N(C(=O)c2ccc(-c4cccc5ccccc45)cc2Cl)C3)CC1", "note": "[Example 243, {10-[2-Chloro-4-(1-naphthyl)benzoyl]-10,11-dihydro-5H-pyrrolo[2,1-c][1,4]benzodiazepin-3-yl}(4-isopropyl-1-piperazinyl)methanone]", "inhibition at 0.1 µM": 17}
{"smiles": "COc1ccccc1-c1ccc(C(=O)N2Cc3ccc(C(=O)N4CCCN(C)CC4)n3Cc3ccccc32)cc1C", "note": "[Example 62, {10-[(2′-Methoxy-2-methyl[1,1′-biphenyl]-4-yl)carbonyl]-10,11-dihydro-5H-pyrrolo[2,1-c][1,4]benzodiazepin-3-yl}(4-methyl-1,4-diazepan-1-yl)methanone]", "inhibition at 0.1 µM": 91}
{"smiles": "COc1cc(C(=O)N2Cc3ccc(C(=O)N4CCCN(C)CC4)n3Cc3ccccc32)ccc1-c1ccccc1C", "note": "[Example 66, {10-[(2-Methoxy-2′-methyl[1,1′-biphenyl]-4-yl)carbonyl]-10,11-dihydro-5H-pyrrolo[2,1-c][1,4]benzodiazepin-3-yl}(4-methyl-1,4-diazepan-1-yl)methanone]", "inhibition at 0.1 µM": 87}
{"smiles": "COc1ccccc1-c1ccc(C(=O)N2Cc3ccc(C(=O)N[C@@H]4CN5CCC4CC5)n3Cc3ccccc32)cc1OC", "note": "[Example 300, N-[(3S)-1-Azabicyclo[2.2.2]oct-3-yl]-10-[(2,2′-dimethoxy[1,1′-biphenyl]-4-yl)carbonyl]-10,11-dihydro-5H-pyrrolo[2,1-c][1,4]benzodiazepine-3-carboxamide]", "inhibition at 0.1 µM": 72}
{"smiles": "COc1cc(C(=O)N2Cc3ccc(C(=O)N4CCC(N5CCCCC5)CC4)n3Cc3ccccc32)ccc1-n1c(C)ccc1C", "note": "[Example 311, {10-[4-(2,5-Dimethyl-1H-pyrrol-1-yl)-3-methoxy-benzoyl]-10,11-dihydro-5H-pyrrolo[2,1-c][1,4]benzodiazepin-3-yl}[4-(1-piperidinyl)-1-piperidinyl]-methanone]", "inhibition at 0.1 µM": 16}
{"smiles": "COc1cccc(-c2cc(OC)c(C(=O)N3Cc4ccc(C(=O)N5CCN(CCCN(C)C)CC5)n4Cc4ccccc43)cc2Cl)c1", "note": "[Example 252, {10-[(6-Chloro-3,3′-dimethoxy[1,1′-biphenyl]-4-yl)carbonyl]-10,11-dihydro-5H-pyrrolo[2,1-c][1,4]benzodiazepin-3-yl}{4-[3-(dimethylamino)propyl]-1-piperazinyl}methanone]", "inhibition at 0.1 µM": 72}
{"smiles": "COc1cccc(-c2cc(OC)c(C(=O)N3Cc4ccc(C(=O)N5CCN(C)CC5)n4Cc4ccccc43)cc2Cl)c1", "note": "[Example 54, {10-[(6-Chloro-3,3′-dimethoxy[1,1′-biphenyl]-4-yl)carbonyl]-10,11-dihydro-5H-pyrrolo[2,1-c][1,4]benzodiazepin-3-yl}(4-methyl-1-piperazinyl)methanone]", "inhibition at 0.1 µM": 78}
{"smiles": "COc1cccc(-c2ccc(C(=O)N3Cc4ccc(C(=O)N5CCCN(C)CC5)n4Cc4ccccc43)cc2C)c1", "note": "[Example 64, {10-[(3′-Methoxy-2-methyl[1,1′-biphenyl]-4-yl)carbonyl]-10,11-dihydro-5H-pyrrolo[2,1-c][1,4]benzodiazepin-3-yl}(4-methyl-1,4-diazepan-1-yl)methanone]", "inhibition at 0.1 µM": 74}
{"smiles": "COc1cc(C(=O)N2Cc3ccc(C(=O)N4CCN(C)CC4)n3Cc3ccccc32)ccc1-c1cccc2ccccc12", "note": "[Example 55, {10-[3-Methoxy-4-(1-naphthyl)benzoyl]-10,11-dihydro-5H-pyrrolo[2,1-c][1,4]benzodiazepin-3-yl}(4-methyl-1-piperazinyl)methanone]", "inhibition at 0.1 µM": 67}
{"smiles": "Cc1cc(C(=O)N2Cc3ccc(C(=O)n4ccnc4)n3Cc3ccccc32)ccc1-c1ccccc1C(F)(F)F", "note": "[Example 294, 1H-Imidazol-1-yl(10-{[2-methyl-2′-(trifluoromethyl)[1,1′-biphenyl]-4-yl]carbonyl}-10,11-dihydro-5H-pyrrolo[2,1-c][1,4]benzodiazepin-3-yl)methanone]", "inhibition at 0.1 µM": 54}
{"smiles": "COc1cc(C(=O)N2Cc3ccc(C(=O)N4CCN(C)CC4)n3Cc3ccccc32)ccc1-c1ccccc1C", "note": "[Example 53, {10-[(2-Methoxy-2′-methyl[1,1′-biphenyl]-4-yl)carbonyl]-10,11-dihydro-5H-pyrrolo[2,1-c][1,4]benzodiazepin-3-yl}(4-methyl-1-piperazinyl)methanone]", "inhibition at 0.1 µM": 89}
{"smiles": "COc1cc(C(=O)N2Cc3ccc(C(=O)NCCCN(C)C)n3Cc3ccccc32)ccc1-c1ccccc1C", "note": "[Example 77, N-[3-(Dimethylamino)propyl]-10-[(2-methoxy-2′-methyl[1,1′-biphenyl]-4-yl)carbonyl]-10,11-dihydro-5H-pyrrolo[2,1-c][1,4]benzodiazepine-3-carboxamide]", "inhibition at 0.1 µM": 65}
{"smiles": "Cc1cc(C(=O)N2Cc3cccn3Cc3ccccc32)cc(C)c1-n1c(C)ccc1C", "note": "[Example 30, [4-(2,5-Dimethyl-1H-pyrrol-1-yl)-3,5-dimethyl-phenyl][10,11-dihydro-5H-pyrrolo[2,1-c][1,4]benzodiazepin-10-yl]methanone]", "inhibition at 0.1 µM": 48}
{"smiles": "COc1cc(-c2ccccc2C)c(Cl)cc1C(=O)N1Cc2ccc(C(=O)N3CCN(CCCN(C)C)CC3)n2Cc2ccccc21", "note": "[Example 251, {10-[(6-Chloro-3-methoxy-2′-methyl[1,1′-biphenyl]-4-yl)carbonyl]-10,11-dihydro-5H-pyrrolo[2,1-c][1,4]benzodiazepin-3-yl}{4-[3-(dimethylamino)propyl]-1-piperazinyl}methanone]", "inhibition at 0.1 µM": 87}
{"smiles": "COc1cc(C(=O)N2Cc3ccc(C(=O)n4ccnc4)n3Cc3ccccc32)ccc1-c1ccccc1C", "note": "[Example 290, 1H-Imidazol-1-yl-{10-[(2-methoxy-2′-methyl[1,1′-biphenyl]-4-yl)carbonyl]-10,11-dihydro-5H-pyrrolo[2,1-c][1,4]benzodiazepin-3-yl}methanone]", "inhibition at 0.1 µM": 78}
{"smiles": "CCOc1ccccc1-c1cc(OC)c(C(=O)N2Cc3cccn3Cc3ccccc32)cc1Cl", "note": "[Example 17, 10-{[6-Chloro-3-methoxy-2′-ethoxy[1,1′-biphenyl]-4-yl]carbonyl}-10,11-dihydro-5H-pyrrolo[2,1-c][1,4]benzodiazepine]", "inhibition at 0.1 µM": 28}
{"smiles": "COc1ccccc1-c1ccc(C(=O)N2Cc3ccc(C(=O)N[C@H]4CN5CCC4CC5)n3Cc3ccccc32)cc1C", "note": "[Example 298, N-[(3R)-1-Azabicyclo[2.2.2]oct-3-yl]-10-[(2′-methoxy-2-methyl[1,1′-biphenyl]-4-yl)carbonyl]-10,11-dihydro-5H-pyrrolo[2,1-c][1,4]benzodiazepine-3-carboxamide]", "inhibition at 0.1 µM": 94}
{"smiles": "COc1cccc(-c2ccc(C(=O)N3Cc4ccc(C(=O)N5CCN(C)CC5)n4Cc4ccccc43)cc2C)c1", "note": "[Example 51, {10-[(3′-Methoxy-2-methyl[1,1′-biphenyl]-4-yl)carbonyl]-10,11-dihydro-5H-pyrrolo[2,1-c][1,4]benzodiazepin-3-yl}(4-methyl-1-piperazinyl)methanone]", "inhibition at 0.1 µM": 81}
{"smiles": "COc1cc(C(=O)N2Cc3ccc(C(=O)N4CCN(CCCN(C)C)CC4)n3Cc3ccccc32)ccc1-n1c(C)ccc1C", "note": "[Example 320, {4-[3-(Dimethylamino)propyl]-1-piperazinyl}{10-[4-(2,5-dimethyl-1H-pyrrol-1-yl)-3-methoxybenzoyl]-10,11-dihydro-5H-pyrrolo[2,1-c][1,4]benzodiazepin-3-yl}methanone]", "inhibition at 0.1 µM": 34}
{"smiles": "CN(C)CCCN1CCN(C(=O)c2ccc3n2Cc2ccccc2N(C(=O)c2ccc(-c4cccc5ccccc45)cc2Cl)C3)CC1", "note": "[Example 256, {10-[2-Chloro-4-(1-naphthyl)benzoyl]-10,11-dihydro-5H-pyrrolo[2,1-c][1,4]benzodiazepin-3-yl}{4-[3-(dimethylamino)propyl]-1-piperazinyl}methanone]", "inhibition at 0.1 µM": 33}
{"smiles": "COc1ccccc1-c1ccc(C(=O)N2Cc3ccc(C(=O)N4CCN(C)CC4)n3Cc3ccccc32)cc1C", "note": "[Example 49, {10-[(2′-Methoxy-2-methyl[1,1′-biphenyl]-4-yl)carbonyl]-10,11-dihydro-5H-pyrrolo[2,1-c][1,4]benzodiazepin-3-yl}(4-methyl-1-piperazinyl)methanone]", "inhibition at 0.1 µM": 92}
{"smiles": "Cc1ccccc1-c1ccc(C(=O)N2Cc3ccc(C(=O)N4CCN(CCCN(C)C)CC4)n3Cc3ccccc32)cc1", "note": "[Example 249, {4-[3-(Dimethylamino)propyl]-1-piperazinyl}{10-[(2′-methyl[1,1′-biphenyl]-4-yl)carbonyl]-10,11-dihydro-5H-pyrrolo[2,1-c][1,4]benzodiazepin-3-yl}methanone]", "inhibition at 0.1 µM": 18}
{"smiles": "COc1ccccc1-c1ccc(C(=O)N2Cc3ccc(C(=O)NCCCN(C)C)n3Cc3ccccc32)cc1C", "note": "[Example 72, N-[3-(Dimethylamino)propyl]-10-[(2′-methoxy-2-methyl[1,1′-biphenyl]-4-yl)carbonyl]-10,11-dihydro-5H-pyrrolo[2,1-c][1,4]benzodiazepine-3-carboxamide]", "inhibition at 0.1 µM": 74}
{"smiles": "Cc1cc(C(=O)N2Cc3cccn3Cc3ccccc32)ccc1-c1ccncc1", "note": "[Example 31, [3-Methyl-4-(4-pyridinyl)phenyl]-[10,11-dihydro-5H-pyrrolo[2,1-c][1,4]benzodiazepin-10-yl]methanone]", "inhibition at 0.1 µM": 69}
{"smiles": "COc1cccc(-c2ccc(C(=O)N3Cc4ccc(C(=O)n5ccnc5)n4Cc4ccccc43)cc2C)c1", "note": "[Example 289, 1H-Imidazol-1-yl-{10-[(3′-methoxy-2-methyl[1,1′-biphenyl]-4-yl)carbonyl]-10,11-dihydro-5H-pyrrolo[2,1-c][1,4]benzodiazepin-3-yl}methanone]", "inhibition at 0.1 µM": 45}
